Some results are limits rather than exact numbers.

Assay [1] has as its target METTL3/METTL14 (Homo sapiens, UniProt Q86U44). The experiment in a line: METTL3-14 standard enzyme assay (3H-SAM flashplate). Conditions: Table 4; METTL3 biochemical assay. The essentials: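 METTL3/METTL14 (2.5 nM) preincubated 5 min, then reacted with 3′-biotinylated RNA UCUGGACUAAA (100 nM) and 3H-SAM (100 nM) for 30 min at ambient temperature in 20 mM HEPES pH 7.5, 50 mM KCl, 250 μM MgCl2, 1 mM DTT. Quenched with 15 μM cold SAM; product captured on streptavidin flashplates, scintillation counted.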

In assay [2] the target is PRMT5-MEP50 (Homo sapiens, UniProt O14744). The experiment in a line: PRMT5 assay (3H-SAM flashplate). The settings on record: Table 4; PRMT5 biochemical assay. As to the method:
Assays were performed in a 25 μl-volume in 384-well V-bottom polypropylene microplates (Greiner Bio-One, cat. No. 781280) at ambient temperature. Optimized 1× assay buffer was 20 mM Tris-HCl pH 8.0, 1 mM DTT, […]. For compound screening PRMT5-MEP50 (final concentration, f.c.=2.5 nM) was added using a Multidrop Combi (ThermoFisher Scientific, Waltham, MA) and preincubated for 5 min. Reactions were started by adding 3′ biotinylated histone H4 peptide acetylated on serine 1 (Ac-[…]-Biotin) (f.c.=100 nM) and 3H-SAM (f.c.=250 nM) substrates. Reactions proceeded for 60 minutes and were quenched with excess non-radioactive SAM (f.c.=15 μM). The reactions were then transferred to streptavidin-coated flashplates and incubated for 2 hours at 25° C. Following two washing cycles with 0.1% Tween-20, the plates were sealed and read on a TopCount (PerkinElmer, Waltham, MA) plate-based scintillation counter. For determination of kinetic parameters, reaction times were optimized so that measurements were taken during the initial velocity phase of the reaction.

Chain of METTL3/METTL14 (Q86U44 whole entry, species assumed): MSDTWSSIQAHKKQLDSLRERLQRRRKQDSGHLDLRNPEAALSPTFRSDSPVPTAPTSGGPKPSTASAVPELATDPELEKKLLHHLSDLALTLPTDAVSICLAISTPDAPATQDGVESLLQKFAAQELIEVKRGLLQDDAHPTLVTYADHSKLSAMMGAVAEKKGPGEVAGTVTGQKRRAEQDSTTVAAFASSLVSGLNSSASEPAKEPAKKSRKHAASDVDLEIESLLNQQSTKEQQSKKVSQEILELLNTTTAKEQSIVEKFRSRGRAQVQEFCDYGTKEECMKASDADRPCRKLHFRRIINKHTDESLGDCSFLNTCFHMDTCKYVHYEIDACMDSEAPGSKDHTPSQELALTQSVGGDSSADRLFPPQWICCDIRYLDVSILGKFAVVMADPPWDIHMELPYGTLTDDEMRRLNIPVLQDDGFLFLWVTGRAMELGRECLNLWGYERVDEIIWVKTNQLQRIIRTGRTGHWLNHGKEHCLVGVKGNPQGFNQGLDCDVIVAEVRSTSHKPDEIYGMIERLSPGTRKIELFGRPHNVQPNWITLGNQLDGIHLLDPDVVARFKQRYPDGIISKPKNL
Chain of METTL3/METTL14 (Q9HCE5 whole entry partner, species assumed): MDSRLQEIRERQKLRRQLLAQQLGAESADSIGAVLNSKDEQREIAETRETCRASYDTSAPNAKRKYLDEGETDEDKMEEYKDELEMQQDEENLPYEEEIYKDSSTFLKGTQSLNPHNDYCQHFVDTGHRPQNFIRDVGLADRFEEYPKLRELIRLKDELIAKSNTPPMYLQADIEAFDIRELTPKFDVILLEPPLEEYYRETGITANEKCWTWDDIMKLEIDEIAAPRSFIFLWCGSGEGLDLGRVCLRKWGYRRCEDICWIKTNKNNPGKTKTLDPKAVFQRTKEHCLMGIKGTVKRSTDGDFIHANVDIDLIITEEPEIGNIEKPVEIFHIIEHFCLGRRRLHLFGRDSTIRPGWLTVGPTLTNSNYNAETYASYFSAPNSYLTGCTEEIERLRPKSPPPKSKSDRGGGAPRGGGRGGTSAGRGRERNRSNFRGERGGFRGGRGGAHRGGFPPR
Chain of PRMT5-MEP50 (O14744 whole entry): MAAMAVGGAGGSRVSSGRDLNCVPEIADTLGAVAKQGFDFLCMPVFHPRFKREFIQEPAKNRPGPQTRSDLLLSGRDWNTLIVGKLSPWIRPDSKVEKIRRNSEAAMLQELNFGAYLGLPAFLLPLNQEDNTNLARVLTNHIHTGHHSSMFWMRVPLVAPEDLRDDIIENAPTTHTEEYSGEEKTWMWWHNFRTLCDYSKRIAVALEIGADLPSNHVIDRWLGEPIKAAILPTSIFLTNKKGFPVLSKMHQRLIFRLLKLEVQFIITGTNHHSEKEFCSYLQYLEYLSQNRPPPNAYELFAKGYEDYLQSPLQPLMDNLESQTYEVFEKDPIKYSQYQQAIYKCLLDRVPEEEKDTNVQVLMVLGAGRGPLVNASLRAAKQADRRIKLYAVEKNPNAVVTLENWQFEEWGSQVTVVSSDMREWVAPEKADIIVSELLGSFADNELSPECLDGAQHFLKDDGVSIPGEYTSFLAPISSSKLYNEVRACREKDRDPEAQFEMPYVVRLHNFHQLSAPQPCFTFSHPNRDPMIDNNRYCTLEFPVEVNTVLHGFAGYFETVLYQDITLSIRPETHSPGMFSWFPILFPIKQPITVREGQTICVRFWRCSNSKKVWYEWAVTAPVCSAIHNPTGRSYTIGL
Chain of PRMT5-MEP50 (Q9BQA1 whole entry partner): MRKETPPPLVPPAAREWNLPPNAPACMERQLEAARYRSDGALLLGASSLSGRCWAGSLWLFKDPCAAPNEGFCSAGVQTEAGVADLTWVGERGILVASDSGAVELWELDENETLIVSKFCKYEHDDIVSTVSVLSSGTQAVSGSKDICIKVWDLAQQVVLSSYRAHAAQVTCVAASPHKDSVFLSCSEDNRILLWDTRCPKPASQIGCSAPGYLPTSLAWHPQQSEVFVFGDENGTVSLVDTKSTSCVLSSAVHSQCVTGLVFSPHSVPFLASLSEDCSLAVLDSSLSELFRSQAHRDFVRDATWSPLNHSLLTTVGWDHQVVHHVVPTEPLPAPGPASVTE

One may read the IC50 as the concentration that gives 50% inhibition. With `Cn1ccc(-c2cn([C@@H]3O[C@H](C(=O)NC4CCN(CCN)CC4)[C@@H](O)[C@H]3O)c3ncnc(N)c23)n1` [Compound I-41, (2S,3S,4R,5R)-5-[4-amino-5-(1-methyl-1H-pyrazol-3-yl)-7H-pyrrolo[2,3-d]pyrimidin-7-yl]-N-[1-(2-aminoethyl)piperidin-4-yl]-3,4-dihydroxyoxolane-2-carboxamide], the 50% inhibitory concentration (IC50) in assay [1] and in assay [2] was not below 1000 nM in each case.
`CN1CCC(N(CC2CN(C)C2)C(=O)[C@H]2O[C@@H](n3cc(-c4ccn(C)n4)c4c(N)ncnc43)[C@H](O)[C@@H]2O)CC1` [Compound I-47]: the concentration for half-maximal inhibition (IC50) in assay [1] is not below 1000 nM; in assay [2], 10 to 100 nM.
For `CN1CCC(N(CCCc2nn[nH]n2)C(=O)[C@H]2O[C@@H](n3cc(-c4ccn(C)n4)c4c(N)ncnc43)[C@H](O)[C@@H]2O)CC1` [Compound I-48], in that order: not below 1000 nM and 10 to 100 nM.
`CN1CCC(N(CCCNC(=O)OCc2ccccc2)C(=O)[C@H]2O[C@@H](n3cc(-c4ccn(C)n4)c4c(N)ncnc43)[C@H](O)[C@@H]2O)CC1` [Compound I-49, benzyl N-(3-{1-[(2S,3S,4R,5R)-5-[4-amino-5-(1-methyl-1H-pyrazol-3-yl)-7H-pyrrolo[2,3-d]pyrimidin-7-yl]-3,4-dihydroxyoxolan-2-yl]-N-(1-methylpiperidin-4-yl)formamido}propyl)carbamate]: the IC50 in assay [1] lay within 100 to 1000 nM; in assay [2], 10 to 100 nM.
Turning to `CN(C)CCCN(C(=O)[C@H]1O[C@@H](n2cc(-c3ccn(C)n3)c3c(N)ncnc32)[C@H](O)[C@@H]1O)C1CCN(C)CC1` [Compound I-51, (2S,3S,4R,5R)-5-[4-amino-5-(1-methyl-1H-pyrazol-3-yl)-7H-pyrrolo[2,3-d]pyrimidin-7-yl]-N-[3-(dimethylamino)propyl]-3,4-dihydroxy-N-(1-methylpiperidin-4-yl)oxolane-2-carboxamide], the IC50 in assay [1] and in assay [2] was 100 to 1000 nM in each case.
Regarding `CN1CCC(NC(=O)[C@H]2C[C@@H](n3cc(-c4ccn(C)n4)c4c(N)ncnc43)C[C@@H]2O)CC1` [Compound I-55, (1S,2S,4R)-4-(4-amino-5-(1-methyl-1H-pyrazol-3-yl)-7H-pyrrolo[2,3-d]pyrimidin-7-yl)-2-hydroxy-N-(1-methylpiperidin-4-yl)cyclopentane-1-carboxamide], the half-inhibitory concentration (IC50) in assay [1] and in assay [2] was not below 1000 nM throughout.
Regarding `CN1CCC(N(CCCC(=O)O)C(=O)[C@H]2O[C@@H](n3cc(-c4ccn(C)n4)c4c(N)ncnc43)[C@H](O)[C@@H]2O)CC1` [Compound I-58, 4-{1-[(2S,3S,4R,5R)-5-[4-amino-5-(1-methyl-1H-pyrazol-3-yl)-7H-pyrrolo[2,3-d]pyrimidin-7-yl]-3,4-dihydroxyoxolan-2-yl]-N-(1-methylpiperidin-4-yl)formamido}butanoic acid], the IC50 in assay [1] is not below 1000 nM; in assay [2], 10 to 100 nM.
For the molecule `C#CCCCN(C(=O)[C@H]1O[C@@H](n2cc(-c3ccn(C)n3)c3c(N)ncnc32)[C@H](O)[C@@H]1O)C1CCN(C)CC1` [Compound I-59, (2S,3S,4R,5R)-5-(4-amino-5-(1-methyl-1H-pyrazol-3-yl)-7H-pyrrolo[2,3-d]pyrimidin-7-yl)-3,4-dihydroxy-N-(1-methylpiperidin-4-yl)-N-(pent-4-yn-1-yl)tetrahydrofuran-2-carboxamide], the IC50 in assay [1] is 100 to 1000 nM; in assay [2] it was less than 10 nM.
With `CN1CCC(N(CCCc2cnoc2)C(=O)[C@H]2O[C@@H](n3cc(-c4ccn(C)n4)c4c(N)ncnc43)[C@H](O)[C@@H]2O)CC1` [Compound I-152], the half-inhibitory concentration (IC50) in assay [1] and in assay [2] was 100 to 1000 nM throughout.
Turning to `CN1CCC(N(CCCNc2ccccn2)C(=O)[C@H]2O[C@@H](n3cc(-c4ccn(C)n4)c4c(N)ncnc43)[C@H](O)[C@@H]2O)CC1` [Compound I-153], the IC50 in assay [1] is not below 1000 nM; in assay [2] it was 10 to 100 nM.
For `CN1CCC(N(C[C@H]2CCNC2)C(=O)[C@H]2O[C@@H](n3cc(-c4ccn(C)n4)c4c(N)ncnc43)[C@H](O)[C@@H]2O)CC1` [Compound I-154], in that order: 100 to 1000 nM and 100 to 1000 nM.
On the same counts, the results for `CN1CCC(N(CCCC#N)C(=O)[C@H]2O[C@@H](n3cc(-c4ccn(C)n4)c4c(N)ncnc43)[C@H](O)[C@@H]2O)CC1` [Compound I-155] are 100 to 1000 nM and 10 to 100 nM.
For `Cn1ccc(-c2cn([C@@H]3O[C@H](C(=O)N4CCC[C@H](C(N)=O)C4)[C@@H](O)[C@H]3O)c3ncnc(N)c23)n1` [Compound I-200], in that order: not below 1000 nM and not below 1000 nM.
As to `Cn1ccc(-c2cn([C@@H]3O[C@H](C(=O)NC4CCN(Cc5ccccc5)CC4)[C@@H](O)[C@H]3O)c3ncnc(N)c23)n1` [Compound I-201], the concentration for half-maximal inhibition (IC50) in assay [1] and in assay [2] was 10 to 100 nM in each case.
For the molecule `Cn1ccc(-c2cn([C@@H]3O[C@H](C(=O)NC4CCN5CCCC5C4)[C@@H](O)[C@H]3O)c3ncnc(N)c23)n1` (stereo partly shown) [Compound I-206], the concentration for half-maximal inhibition (IC50) in assay [1] and in assay [2] was 100 to 1000 nM in each case.
For `Cn1ccc(-c2cn([C@@H]3O[C@H](C(=O)NC4CCn5ccnc5C4)[C@@H](O)[C@H]3O)c3ncnc(N)c23)n1` (stereo partly shown) [Compound I-207], the IC50 in assay [1] and in assay [2] was 100 to 1000 nM each time.
`Cn1ccc(-c2cn([C@@H]3O[C@H](C(=O)NC4CCC5(CC4)CNC5)[C@@H](O)[C@H]3O)c3ncnc(N)c23)n1` [Compound I-208]: the IC50 in assay [1] and in assay [2] was 100 to 1000 nM throughout.
In the case of `Cn1ccc(-c2cn([C@@H]3O[C@H](C(=O)NC4CCS(=O)(=O)C4)[C@@H](O)[C@H]3O)c3ncnc(N)c23)n1` (stereo partly shown) [Compound I-213], the IC50 in assay [1] and in assay [2] was not below 1000 nM throughout.
In the case of `Cn1ccc(-c2cn([C@@H]3O[C@H](C(=O)N[C@H]4C[C@@H](O)C4)[C@@H](O)[C@H]3O)c3ncnc(N)c23)n1` [Compound I-214], the IC50 in assay [1] and in assay [2] was not below 1000 nM in each case.
Take `Cn1ccc(-c2cn([C@@H]3O[C@H](C(=O)N[C@H]4C[C@H](O)C4)[C@@H](O)[C@H]3O)c3ncnc(N)c23)n1` [Compound I-215]: the IC50 in assay [1] and in assay [2] was not below 1000 nM throughout.
With `CN1CC(NC(=O)[C@H]2O[C@@H](n3cc(-c4ccn(C)n4)c4c(N)ncnc43)[C@H](O)[C@@H]2O)C1` [Compound I-216], the concentration for half-maximal inhibition (IC50) in assay [1] is 100 to 1000 nM; in assay [2], 10 to 100 nM.
As to `Cn1ccc(-c2cn([C@@H]3O[C@H](C(=O)N4CCc5[nH]cnc5C4)[C@@H](O)[C@H]3O)c3ncnc(N)c23)n1` [Compound I-217], the IC50 in assay [1] was 100 to 1000 nM; in assay [2], 10 to 100 nM.
Regarding `Cn1ccc(-c2cn([C@@H]3O[C@H](C(=O)NC4CCC4)[C@@H](O)[C@H]3O)c3ncnc(N)c23)n1` [Compound I-218], the IC50 in assay [1] is 100 to 1000 nM; in assay [2] it was not below 1000 nM.
For `Cn1ccc(-c2cn([C@@H]3O[C@H](C(=O)NC4CCN(c5ccccc5)CC4)[C@@H](O)[C@H]3O)c3ncnc(N)c23)n1` [Compound I-221], in that order: 100 to 1000 nM and 100 to 1000 nM.
On the same counts, the results for `Cn1ccc(-c2cn([C@@H]3O[C@H](C(=O)NC4CCN(c5ccccn5)CC4)[C@@H](O)[C@H]3O)c3ncnc(N)c23)n1` [Compound I-222] are 100 to 1000 nM and not below 1000 nM.
As for `Cn1ccc(-c2cn([C@@H]3O[C@H](C(=O)NC4CCN(CC5CCC5)CC4)[C@@H](O)[C@H]3O)c3ncnc(N)c23)n1` [Compound I-223], the half-maximal inhibitory concentration (IC50) in assay [1] and in assay [2] was 10 to 100 nM throughout.
`Cn1ccc(-c2cn([C@@H]3O[C@H](C(=O)NC4CCN(C5CCC5)CC4)[C@@H](O)[C@H]3O)c3ncnc(N)c23)n1` [Compound I-224]: the half-inhibitory concentration (IC50) in assay [1] and in assay [2] was 100 to 1000 nM in each case.
Regarding `Cn1ccc(-c2cn([C@@H]3O[C@H](C(=O)NC4CCN(C(=O)OCc5ccccc5)CC4)[C@@H](O)[C@H]3O)c3ncnc(N)c23)n1` [Compound I-225], the IC50 in assay [1] and in assay [2] was 100 to 1000 nM each time.
Turning to `CN1CCC[C@H](NC(=O)[C@H]2O[C@@H](n3cc(-c4ccn(C)n4)c4c(N)ncnc43)[C@H](O)[C@@H]2O)C1` [Compound I-230], the 50% inhibitory concentration (IC50) in assay [1] is not below 1000 nM; in assay [2], 10 to 100 nM.
On the same counts, the results for `C[C@H]1C[C@@H](NC(=O)[C@H]2O[C@@H](n3cc(-c4ccn(C)n4)c4c(N)ncnc43)[C@H](O)[C@@H]2O)CCN1C` [Compound I-232] are 100 to 1000 nM and 100 to 1000 nM.
For `CC(=O)NCCCN(C(=O)[C@H]1O[C@@H](n2cc(-c3ccn(C)n3)c3c(N)ncnc32)[C@H](O)[C@@H]1O)C1CCN(C)CC1` [Compound I-235], in that order: not below 1000 nM and 100 to 1000 nM.
On the same counts, the results for “(2S,3S,4R,5R)-5-[4-amino-5-(1-methyl-1H-pyrazol-3-yl)-7H-pyrrolo[2,3-d]pyrimidin-7-yl]-3,4-dihydroxy-N-{3-[(methylcarbamoyl)amino]propyl}-N-(1-methylpiperidin-4-yl)oxolane-2-carboxamide [Compound I-50]” are not below 1000 nM and 100 to 1000 nM.
